Data reported in patent US4464371A, “Five-membered heterocyclic compounds” (Santen Pharmaceutical Co., Ltd., priority 1980, dated 1984).

Assays:
[1] = tested on: blood pressure of spontaneously hypertensive rats; experiment: Hypotensive effect in spontaneously hypertensive rats (oral, indirect tail-cuff method); type: in vivo, Male spontaneously hypertensive rats (Charles River); details: 10 mg/Kg and 30 mg/Kg, suspended in 0.5% tragacanth, male spontaneously hypertensive rats
Method: Male spontaneously hypertensive rats (Charles River) weighing 370-430 g (37-43 weeks of age) were used.
The subject compound, suspended in 0.5% tragacanth, was given orally to the animals. Their blood pressure was measured by indirect tail-cuff method using a programmed electrosphygmomanometer.
In the figure, line 1 and line 2 represent the hypotensive effect by the compound of this invention at doses of 30 mg/Kg and 10 mg/Kg, respectively, line 3 that by the reference compound at a dose of 30 mg/Kg, and line 4 control (no drugs).

[2] = Acute toxicity test; type: in vivo, male mice; details: mouse, in vivo; intravenous, administered as aqueous sodium hydroxide solution, male mice
Text: (§1) Acute toxicity of (2R,4R)--3--[S--[4--(dipropylsulfamoyl)--benzoyl]--3--mercaptopropionyl]-- 2--(2--hydroxyphenyl)--4--thiazolidinecarboxylic acid is shown in the table.
(§2) *^1 administered as tragacanth
(§3) *^2 administered as aqueous sodium hydroxide solution
(§4) Animals used in this test were ten male mice in each route.

[3] = tested on: mice; experiment: Acute toxicity test; type: in vivo, male mice
Text: as §1, §2, §3, §4

SMILES: CCCN(CCC)S(=O)(=O)c1ccc(C(=O)SCCC(=O)N2[C@@H](c3ccccc3O)SC[C@H]2C(=O)O)cc1 [Example 1, (2R,4R)--3--[S--[4--(Dipropylsulfamoyl)benzoyl]--3--mercaptopropionyl]--2-- (2--hydroxyphenyl)--4--thiazolidinecarboxilic acid]
- decrease of blood pressure (hypotensive effect) [1]: clearly decreased the blood pressure
- LD50 [2]: > 500 mg/kg
- LD50 (deaths observed) ([3]; mouse, in vivo, po, 1000 mg/kg): No death was observed
- acute toxicity (overall) ([3]; oral and intravenous, male mice): low toxicity
